Measurements published in patent US11466044B2 (WAYNE STATE UNIVERSITY, priority 2017, dated 2022).
In brackets after ≈: the same amount, converted by molar mass. Where a name gives a salt, the structure may show the parent alone. Read-outs that look alike come from different tables or passages of the source.

Tests used:
[1] = tested on: E coli wild type; assay: MIC by broth microdilution, wild type E coli; format: cell-based; details: for MIC / MIC50: Escherichia coli; for MIC50: Table 1 (Example 1)
[2] = tested on: wild type bacterial ribosomes; assay: in-vitro translation assay, bacterial ribosomes; format: biochemical; details: bacterial ribosome, read-out: IC50 Bac
Source text: (§1) The antiribosomal activity of these compounds was investigated with cell-free translation assays using both wild type bacterial ribosomes and hybrid ribosomes carrying eukaryotic decoding A sites enabling the prediction of selectivity.

[3] = tested on: mitochondrial ribosome (human chimeric); format: biochemical; details: mitochondrial, read-out: IC50 Mit
Source text: as §1

[4] = tested on: cytosolic ribosome (human chimeric); format: biochemical; details: cytosolic, read-out: IC50 Cyt
Source text: as §1

[5] = tested on: P aeruginosa; assay: MIC by broth microdilution, P aeruginosa isolates; format: cell-based, Pseudomonas aeruginosa; details: for MIC50: Pseudomonas aeruginosa; for MIC: strain AG220 Pseudomonas aeruginosa ATCC27853, read-out: MIC AG220 P. aerugin
[6] = tested on: Klebsiella pneumonia AG215; assay: MIC by broth microdilution, Klebsiella pneumonia; format: cell-based; details: Klebsiella pneumoniae; strain AG215 Klebsiella pneumonia; read-out: MIC AG215 K. pneumon
[7] = tested on: Acinetobacter baumannii pittii AG225; assay: MIC by broth microdilution, Acinetobacter baumannii; format: cell-based; details: strain AG225 Acinetobacter baumannii pittii
[8] = tested on: E coli carrying specific resistance determinants; assay: MIC by broth microdilution, E coli carrying specific resistance determinants; format: cell-based; details: Escherichia coli
[9] = tested on: MRSA; assay: MIC by broth microdilution, MRSA isolates; format: cell-based; details: for MIC50: Staphylococcus aureus, MRSA
[10] = tested on: N. gonorrhoeae; assay: Disk diffusion, N. gonorrhoeae; format: cell-based; details: Neisseria gonorrhoeae
[11] = tested on: Enterobacter cloacae AG290; assay: MIC by broth microdilution, Enterobacter cloacae; format: cell-based; details: strain AG290 Enterobacter cloacae; read-out: MIC AG290 E. cloacae
[12] = tested on: M. smegmatis SZ380; assay: MIC by broth microdilution, M. smegmatis
[13] = ATCC25922, strain AG212 E. coli (ATCC25922), read-out: MIC AG212 E. coli

## NC[C@@H]1O[C@H](O[C@@H]2C(O)[C@H](O[C@@H]3C(O)[C@H](N)CC(N)[C@H]3O[C@H]3OC(CO)[C@@H](O)[C@H](O)C3N)O[C@@H]2CNC=O)C(N)C(O)[C@@H]1O (stereo partly drawn) [Compound 137, 5″-Deoxy-5″-formamido-paromomycin acetate salt]
[1]; AG006 wt, Table 2 (Example 1), read-out: MIC E coli AG006 wt
  MIC: 1 µg/mL
[1]; AG102 wt, Table 2 (Example 1), read-out: MIC E coli AG102 wt
  MIC: 1 µg/mL
[1]; AG160 wt, Table 2 (Example 1), read-out: MIC E coli AG160 wt
  MIC: 2 µg/mL
[1]; [13]
  MIC: 2 µg/mL
[1]; WT, Table 3 (Example 1), read-out: MIC WT
  MIC: 1 to 2 µg/mL
[1]; clinical isolate AG160 WT, Table 2 (Example 4), read-out: MIC AG160 E. coli WT
  MIC: 2 µg/mL
[1]; engineered strain pH430 WT, Table 2 (Example 4), read-out: MIC pH430 E. coli WT
  MIC: 1 to 2 µg/mL
[1]; strain AG01, read-out: MIC50 E coli AG01
  MIC50: 4 µg/mL
[1]; strain AG03, read-out: MIC50 E coli AG03
  MIC50: 4 µg/mL
[1]; strain AG55, read-out: MIC50 E coli AG55
  MIC50: 4 µg/mL
[2]; Table 3 (Example 1)
  IC50: 40 nM
[3]; Table 3 (Example 1)
  IC50: 144 µM
[4]; Table 3 (Example 1)
  IC50: 90 µM
[5]; read-out: MIC50 P aeruginosa AG31
  MIC50: 128 µg/mL
[5]; read-out: MIC50 P aeruginosa AG32
  MIC50: 128 µg/mL
[5]; read-out: MIC50 P aeruginosa AG33
  MIC50: > 128 µg/mL
[5]; read-out: MIC50 P aeruginosa AG86
  MIC50: > 128 µg/mL
[5]
  MIC: > 64 µg/mL
[6]
  MIC: 1 µg/mL
[7]
  MIC: 2 µg/mL
[8]; read-out: MIC AG037 E. coli APH(3′)-III
  MIC: 128 µg/mL
[8]; read-out: MIC AG163 E. coli APH(3′)-I
  MIC: 64 µg/mL
[8]; read-out: MIC AG166 E. coli APH(3′)-II
  MIC: > 128 µg/mL
[8]; read-out: MIC APH(3)-VI
  MIC: > 64 µg/mL
[8]; read-out: MIC APH(3′)-I
  MIC: > 64 µg/mL
[8]; read-out: MIC APH(3′)-II
  MIC: > 64 µg/mL
[8]; read-out: MIC APH(3′)-III
  MIC: > 64 µg/mL
[8]; read-out: MIC E coli AG007 ANT(3″) AAC(3)-I
  MIC: 4 µg/mL
[8]; read-out: MIC E coli AG103 ArmA
  MIC: 8 µg/mL
[8]; read-out: MIC E coli AG163/164 APH(3′)-Ia
  MIC: 32 to 64 µg/mL
[8]; read-out: MIC E coli AG166 APH(3′)-IIa
  MIC: > 128 µg/mL
[8]; read-out: MIC pH421 E. coli APH(3′)-I
  MIC: > 64 µg/mL
[8]; read-out: MIC pH422 E. coli APH(3′)-II
  MIC: > 64 µg/mL
[8]; read-out: MIC pH423 E. coli APH(3′)-VI
  MIC: > 64 µg/mL
[9]; read-out: MIC50 MRSA AG39
  MIC50: > 128 µg/mL
[9]; read-out: MIC50 MRSA AG42
  MIC50: > 128 µg/mL
[9]; strain AG38, Table 1 (Example 1), read-out: MIC50 MRSA AG38
  MIC50: 4 µg/mL
[9]; strain AG44, Table 1 (Example 1), read-out: MIC50 MRSA AG44
  MIC50: 2 to 4 µg/mL
[10]
  zone of inhibition at 25 nmol/disc: 11 mm
[11]
  MIC: 1 to 2 µg/mL
[12]; Mycolicibacterium smegmatis, SZ380, read-out: MIC SZ380 M. smegmatis, strain SZ380 Mycobacterium smegmatis
  MIC: 1 µg/mL

## CC1CC(O)C2O[C@H](O[C@@H]3C(N)C[C@@H](N)C(O)[C@H]3O[C@@H]3O[C@H](CO)[C@H](O[C@H]4O[C@@H](CN)[C@@H](O)C(O)C4N)C3O)C(N)[C@@H](O)[C@@H]2O1 (stereo partly drawn) [Compound 125, 4-O-(2′-Amino-4′,8′-anhydro-2′,7′,9′-trideoxy-D-threo-α-D-gluco-nonapyranosyl)-5-O-[3-O-(2,6-diamino-2,6-dideoxy-β-L-idopyranosyl)-β-D-ribofuranosyl]-2-deoxystreptamine.5AcOH]
[1]; BM13 (AG06) wt, Table 2A (Example 2)
  MIC50 E coli BM13 (AG06) wt: 2 µg/mL (≈ 3.05 µM)
[1]; [13]
  MIC: 2 µg/mL (≈ 3.05 µM)
[1]; WT, Table 3 (Example 2)
  MIC WT: 1 to 2 µg/mL
[1]; pH430 WT, Table 2B (Example 2)
  MIC50 E coli pH430 WT: 1-2 μg/ml
[1]; strain AG01, Table 1 (Example 2)
  MIC50 E coli AG01: 8 µg/mL (≈ 12.2 µM)
[1]; strain AG03, Table 1 (Example 2)
  MIC50 E coli AG03: 8 µg/mL (≈ 12.2 µM)
[1]; strain AG55, Table 1 (Example 2)
  MIC50 E coli AG55: 8 µg/mL (≈ 12.2 µM)
[2]; Table 3 (Example 2)
  IC50: 40 nM
[3]; Table 3 (Example 2)
  IC50: 312 µM
[4]; Table 3 (Example 2)
  IC50: 30 µM
[5]; strain AG31, Table 1 (Example 2)
  MIC50 P aeruginosa AG31: 32 µg/mL (≈ 48.8 µM)
[5]; strain AG32, Table 1 (Example 2)
  MIC50 P aeruginosa AG32: 16 to 32 µg/mL
[5]; strain AG33, Table 1 (Example 2)
  MIC50 P aeruginosa AG33: >128 µg/mL
[5]; strain AG86, Table 1 (Example 2)
  MIC50 P aeruginosa AG86: >128 µg/mL
[5]
  MIC: 8 µg/mL (≈ 12.2 µM)
[6]
  MIC: 2 µg/mL (≈ 3.05 µM)
[7]
  MIC: 4 µg/mL (≈ 6.1 µM)
[8]; read-out: MIC50 E coli AG07 AAC(3), AG07 AAC(3), Table 2A (Example 2)
  MIC50: 8 µg/mL (≈ 12.2 µM)
[8]; read-out: MIC50 E coli AG09 AAC(6′), AG09 AAC(6′), Table 2A (Example 2)
  MIC50: 4 µg/mL (≈ 6.1 µM)
[8]; read-out: MIC50 E coli AG036 ANT(4′,4″), AG036 ANT(4′,4″), Table 2A (Example 2)
  MIC50: 2 to 4 µg/mL (≈ 3.05 to 6.1 µM)
[8]; read-out: MIC50 E coli AG036 ANT(4′,4″), AG036 ANT(4′,4″), Table 2B (Example 2)
  MIC50: 0.5 µg/mL (≈ 0.763 µM)
[8]; read-out: MIC50 E coli AG037 APH(3′)-III, AG037 APH(3′)-III, Table 2B (Example 2)
  MIC50: 16 µg/mL (≈ 24.4 µM)
[8]; read-out: MIC50 E coli AG037 APH(3′,5″), AG037 APH(3′,5″), Table 2A (Example 2)
  MIC50: 32 to 64 µg/mL (≈ 48.8 to 97.6 µM)
[8]; read-out: MIC50 E coli AG103 ArmA, AG103 ArmA, Table 2A (Example 2)
  MIC50: 4 µg/mL (≈ 6.1 µM)
[8]; read-out: MIC50 E coli AG103 armA, AG103 armA, Table 2B (Example 2)
  MIC50: 1 to 2 µg/mL (≈ 1.53 to 3.05 µM)
[8]; read-out: MIC50 E coli AG105 AAC(2′), AG105 AAC(2′), Table 2A (Example 2)
  MIC50: 2 to 4 µg/mL (≈ 3.05 to 6.1 µM)
[8]; read-out: MIC50 E coli pH414 AAC(6′)-I, pH414 AAC(6′)-I, Table 2B (Example 2)
  MIC50: 1 µg/mL (≈ 1.53 µM)
[8]; read-out: MIC50 E coli pH415 AAC(6′)-II, pH415 AAC(6′)-II, Table 2B (Example 2)
  MIC50: 1 to 2 µg/mL (≈ 1.53 to 3.05 µM)
[8]; read-out: MIC50 E coli pH421 APH(3′)-I, pH421 APH(3′)-I, Table 2B (Example 2)
  MIC50: > 32 µg/mL
[8]; read-out: MIC50 E coli pH422 APH(3′)-II, pH422 APH(3′)-II, Table 2B (Example 2)
  MIC50: 4 µg/mL (≈ 6.1 µM)
[8]; read-out: MIC50 E coli pH423 APH(3)-VI, pH423 APH(3)-VI, Table 2B (Example 2)
  MIC50: 2 µg/mL (≈ 3.05 µM)
[8]; read-out: MIC50 E coli pH432 ANT(4′), pH432 ANT(4′), Table 2B (Example 2)
  MIC50: 1 to 2 µg/mL (≈ 1.53 to 3.05 µM)
[8]; read-out: MIC AAC(6′)
  MIC: 1 to 2 µg/mL (≈ 1.53 to 3.05 µM)
[8]; read-out: MIC ANT(4′)
  MIC: 0.5 µg/mL (≈ 0.763 µM)
[8]; read-out: MIC APH(3′)-II
  MIC: 4 µg/mL (≈ 6.1 µM)
[8]; read-out: MIC APH(3′)-VI
  MIC: 2 µg/mL (≈ 3.05 µM)
[9]; strain AG38, Table 1 (Example 2)
  MIC50 MRSA AG38: 8 to 16 µg/mL
[9]; strain AG39, Table 1 (Example 2)
  MIC50 MRSA AG39: 8 µg/mL (≈ 12.2 µM)
[9]; strain AG42, Table 1 (Example 2)
  MIC50 MRSA AG42: 8 µg/mL (≈ 12.2 µM)
[9]; strain AG44, Table 1 (Example 2)
  MIC50 MRSA AG44: 4 µg/mL (≈ 6.1 µM)
[10]
  zone of inhibition at 25 nmol/disc: 9 mm
[11]
  MIC: 2 µg/mL (≈ 3.05 µM)
[12]; strain SZ380 Mycobacterium smegmatis
  MIC SZ380 M. smegmatis: 0.5 µg/mL (≈ 0.763 µM)
